Columns and labels:
Assay in all cases: Test B preemergence/postemergence greenhouse plant response rating 0 to 10
Conditions in all cases: 0 to 10 scale
morningglory = assay type: in vivo, Ipomoea hederacea
In short: (§1)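 Both application timings were run together: seeds got compound preemergence, and established seedlings (two to eighteen cm) got it postemergence. Non-phytotoxic solvent carried the chemical. Ratings are visual, versus controls, at twelve to sixteen days.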

crabgrass = assay type: in vivo, Digitaria spp.
In short: as §1

wheat = assay type: in vivo, Triticum aestivum
In short: as §1

sugar beet = assay type: in vivo, Beta vulgaris
In short: as §1

corn = assay type: in vivo, Zea mays
In short: as §1

lambsquarters = assay type: in vivo, Chenopodium album
In short: as §1

chickweed = assay type: in vivo, Stellaria media
In short: as §1

velvetleaf = assay type: in vivo, Abutilon theophrasti
In short: as §1

cocklebur = assay type: in vivo, Xanthium pensylvanicum
In short: as §1

giant foxtail = assay type: in vivo, Setaria faberii
In short: as §1

purple nutsedge = assay type: in vivo, Cyperus rotundus
In short: as §1

rice = assay type: in vivo, Oryza sativa
In short: as §1

sorghum = assay type: in vivo, Sorghum bicolor
In short: as §1

rape = assay type: in vivo, Brassica napus
In short: as §1

bedstraw = assay type: in vivo, Galium aparine
In short: as §1

barnyardgrass = assay type: in vivo, Echinochloa crus-galli
In short: as §1

wild buckwheat = assay type: in vivo, Polygonum convolvulus
In short: as §1

cheatgrass = assay type: in vivo, Bromus secalinus
In short: as §1

blackgrass = assay type: in vivo, Alopecurus myosuroides
In short: as §1

wild oat = assay type: in vivo, Avena fatua
In short: as §1

soybean = assay type: in vivo, Glycine max
In short: as §1

cotton = assay type: in vivo, Gossypium hirsutum
In short: as §1

barley = assay type: in vivo, Hordeum vulgare
In short: as §1

For `C=CCOC(=O)COc1cc(-c2nn3c(c2Cl)CCCC3)c(F)cc1Cl` [Compound 62], the “Plant response rating, Morningglory” value (morningglory; POSTEMERGENCE, Rate 10 g/ha) was 6, the “Plant response rating, Morningglory” value (morningglory; POSTEMERGENCE, Rate 50 g/ha) was 9 and the “Plant response rating, Morningglory” value (morningglory; PREEMERGENCE, Rate 50 g/ha) was 0. For the same compound, the “Plant response rating, Crabgrass” value (crabgrass; POSTEMERGENCE, Rate 10 g/ha) was 1, the “Plant response rating, Crabgrass” value (crabgrass; POSTEMERGENCE, Rate 50 g/ha) was 2 and the “Plant response rating, Crabgrass” value (crabgrass; PREEMERGENCE, Rate 10 g/ha) was 0. For the same compound, the “Plant response rating, Crabgrass” value (crabgrass; PREEMERGENCE, Rate 50 g/ha) was 0, the “Plant response rating, Wheat” value (wheat; POSTEMERGENCE, Rate 10 g/ha) was 2 and the “Plant response rating, Wheat” value (wheat; POSTEMERGENCE, Rate 50 g/ha) was 2. The “Plant response rating, Wheat” value (wheat; PREEMERGENCE, Rate 50 g/ha) was 2, the “Plant response rating, Sugar beet” value (sugar beet; POSTEMERGENCE, Rate 10 g/ha) was 10 and the “Plant response rating, Sugar beet” value (sugar beet; POSTEMERGENCE, Rate 50 g/ha) was 10. The “Plant response rating, Sugar beet” value (sugar beet; PREEMERGENCE, Rate 50 g/ha) was 10, the “Plant response rating, Corn” value (corn; POSTEMERGENCE, Rate 10 g/ha) was 2 and the “Plant response rating, Corn” value (corn; POSTEMERGENCE, Rate 50 g/ha) was 5. The “Plant response rating, Corn” value (corn; PREEMERGENCE, Rate 50 g/ha) was 0, the “Plant response rating, Lambsquarter” value (lambsquarters; POSTEMERGENCE, Rate 10 g/ha) was 8 and the “Plant response rating, Lambsquarter” value (lambsquarters; POSTEMERGENCE, Rate 50 g/ha) was 9. For the same compound, the “Plant response rating, Lambsquarter” value (lambsquarters; PREEMERGENCE, Rate 50 g/ha) was 9, the “Plant response rating, Chickweed” value (chickweed; POSTEMERGENCE, Rate 10 g/ha) was 0 and the “Plant response rating, Chickweed” value (chickweed; POSTEMERGENCE, Rate 50 g/ha) was 3. For the same compound, the “Plant response rating, Chickweed” value (chickweed; PREEMERGENCE, Rate 50 g/ha) was 0, the “Plant response rating, Velvetleaf” value (velvetleaf; POSTEMERGENCE, Rate 10 g/ha) was 7 and the “Plant response rating, Velvetleaf” value (velvetleaf; POSTEMERGENCE, Rate 50 g/ha) was 10. For the same compound, the “Plant response rating, Velvetleaf” value (velvetleaf; PREEMERGENCE, Rate 50 g/ha) was 2, the “Plant response rating, Cocklebur” value (cocklebur; POSTEMERGENCE, Rate 10 g/ha) was 5 and the “Plant response rating, Cocklebur” value (cocklebur; POSTEMERGENCE, Rate 50 g/ha) was 9. For the same compound, the “Plant response rating, Cocklebur” value (cocklebur; PREEMERGENCE, Rate 10 g/ha) was 0, the “Plant response rating, Cocklebur” value (cocklebur; PREEMERGENCE, Rate 50 g/ha) was 0 and the “Plant response rating, Giant foxtail” value (giant foxtail; POSTEMERGENCE, Rate 10 g/ha) was 1. For the same compound, the “Plant response rating, Giant foxtail” value (giant foxtail; POSTEMERGENCE, Rate 50 g/ha) was 3, the “Plant response rating, Giant foxtail” value (giant foxtail; PREEMERGENCE, Rate 10 g/ha) was 0 and the “Plant response rating, Giant foxtail” value (giant foxtail; PREEMERGENCE, Rate 50 g/ha) was 0. The “Plant response rating, Nutsedge” value (purple nutsedge; POSTEMERGENCE, Rate 10 g/ha) was 0, the “Plant response rating, Nutsedge” value (purple nutsedge; POSTEMERGENCE, Rate 50 g/ha) was 0 and the “Plant response rating, Nutsedge” value (purple nutsedge; PREEMERGENCE, Rate 50 g/ha) was 0. The “Plant response rating, Rice” value (rice; POSTEMERGENCE, Rate 10 g/ha) was 3, the “Plant response rating, Rice” value (rice; POSTEMERGENCE, Rate 50 g/ha) was 3 and the “Plant response rating, Rice” value (rice; PREEMERGENCE, Rate 50 g/ha) was 0. The “Plant response rating, Sorghum” value (sorghum; POSTEMERGENCE, Rate 10 g/ha) was 2, the “Plant response rating, Sorghum” value (sorghum; POSTEMERGENCE, Rate 50 g/ha) was 2 and the “Plant response rating, Sorghum” value (sorghum; PREEMERGENCE, Rate 50 g/ha) was 0. For the same compound, the “Plant response rating, Rape” value (rape; POSTEMERGENCE, Rate 10 g/ha) was 1, the “Plant response rating, Rape” value (rape; POSTEMERGENCE, Rate 50 g/ha) was 6 and the “Plant response rating, Rape” value (rape; PREEMERGENCE, Rate 50 g/ha) was 0. The “Plant response rating, Bedstraw” value (bedstraw; POSTEMERGENCE, Rate 10 g/ha) was 8, the “Plant response rating, Bedstraw” value (bedstraw; POSTEMERGENCE, Rate 50 g/ha) was 9 and the “Plant response rating, Bedstraw” value (bedstraw; PREEMERGENCE, Rate 10 g/ha) was 7. For the same compound, the “Plant response rating, Bedstraw” value (bedstraw; PREEMERGENCE, Rate 50 g/ha) was 7, the “Plant response rating, Barnyardgrass” value (barnyardgrass; POSTEMERGENCE, Rate 10 g/ha) was 2 and the “Plant response rating, Barnyardgrass” value (barnyardgrass; POSTEMERGENCE, Rate 50 g/ha) was 3. The “Plant response rating, Barnyardgrass” value (barnyardgrass; PREEMERGENCE, Rate 10 g/ha) was 0, the “Plant response rating, Barnyardgrass” value (barnyardgrass; PREEMERGENCE, Rate 50 g/ha) was 0 and the “Plant response rating, Wild buckwheat” value (wild buckwheat; POSTEMERGENCE, Rate 10 g/ha) was 2. The “Plant response rating, Wild buckwheat” value (wild buckwheat; POSTEMERGENCE, Rate 50 g/ha) was 10, the “Plant response rating, Wild buckwheat” value (wild buckwheat; PREEMERGENCE, Rate 50 g/ha) was 0 and the “Plant response rating, Cheatgrass” value (cheatgrass; POSTEMERGENCE, Rate 10 g/ha) was 1. The “Plant response rating, Cheatgrass” value (cheatgrass; POSTEMERGENCE, Rate 50 g/ha) was 2, the “Plant response rating, Cheatgrass” value (cheatgrass; PREEMERGENCE, Rate 10 g/ha) was 0 and the “Plant response rating, Cheatgrass” value (cheatgrass; PREEMERGENCE, Rate 50 g/ha) was 0. For the same compound, the “Plant response rating, Blackgrass” value (blackgrass; POSTEMERGENCE, Rate 10 g/ha) was 1, the “Plant response rating, Blackgrass” value (blackgrass; POSTEMERGENCE, Rate 50 g/ha) was 2 and the “Plant response rating, Blackgrass” value (blackgrass; PREEMERGENCE, Rate 10 g/ha) was 0. For the same compound, the “Plant response rating, Blackgrass” value (blackgrass; PREEMERGENCE, Rate 50 g/ha) was 0, the “Plant response rating, Wild oat” value (wild oat; POSTEMERGENCE, Rate 10 g/ha) was 1 and the “Plant response rating, Wild oat” value (wild oat; POSTEMERGENCE, Rate 50 g/ha) was 2. For the same compound, the “Plant response rating, Wild oat” value (wild oat; PREEMERGENCE, Rate 50 g/ha) was 0, the “Plant response rating, Soybean” value (soybean; POSTEMERGENCE, Rate 10 g/ha) was 2 and the “Plant response rating, Soybean” value (soybean; POSTEMERGENCE, Rate 50 g/ha) was 8. The “Plant response rating, Soybean” value (soybean; PREEMERGENCE, Rate 50 g/ha) was 0, the “Plant response rating, Cotton” value (cotton; POSTEMERGENCE, Rate 10 g/ha) was 10 and the “Plant response rating, Cotton” value (cotton; POSTEMERGENCE, Rate 50 g/ha) was 10. The “Plant response rating, Cotton” value (cotton; PREEMERGENCE, Rate 10 g/ha) was 0, the “Plant response rating, Cotton” value (cotton; PREEMERGENCE, Rate 50 g/ha) was 0 and the “Plant response rating, Barley” value (barley; POSTEMERGENCE, Rate 10 g/ha) was 1. The “Plant response rating, Barley” value (barley; POSTEMERGENCE, Rate 50 g/ha) was 1, the “Plant response rating, Barley” value (barley; PREEMERGENCE, Rate 10 g/ha) was 0 and the “Plant response rating, Barley” value (barley; PREEMERGENCE, Rate 50 g/ha) was 0.
